# Laboratory results from patent US20260041741A1, “CD39 AND CD73 FOR THE THERAPY OF HEMORRHAGIC SHOCK” (The Trustees of Columbia University in the City of New York, priority 2023, published 2026).
# B1: rhCD73: recombinant human (rh) CD73 from Daresbury Proteins; CD73 mimic (protein, UniProt P21589 27-549, looked up)
# 5'-nucleotidase: WELTILHTNDVHSRLEQTSEDSSKCVNASRCMGGVARLFTKVQQIRRAEPNVLLLDAGDQYQGTIWFTVYKGAEVAHFMNALRYDAMALGNHEFDNGVEGLIEPLLKEAKFPILSANIKAKGPLASQISGLYLPYKVLPVGDEVVGIVGYTSKETPFLSNPGTNLVFEDEITALQPEVDKLKTLNVNKIIALGHSGFEMDKLIAQKVRGVDVVVGGHSNTFLYTGNPPSKEVPAGKYPFIVTSDDGRKVPVVQAYAFGKYLGYLKIEFDERGNVISSHGNPILLNSSIPEDPSIKADINKWRIKLDNYSTQELGKTIVYLDGSSQSCRFRECNMGNLICDAMINNNLRHTDEMFWNHVSMCILNGGGIRSPIDERNNGTITWENLAAVLPFGGTFDLVQLKGSTLKKAFEHSVHRYGQSTGEFLQVGGIHVVYDLSRKPGDRVVKLDVLCTKCRVPSYDPLKMDEVYKVILPNFLANGGDGFQMIKDELLRHDSGDQDINVVSTYISKMKVIYPAVEGRIKFS
# Experiments:
# [1] = tested on: T/HS mice; experiment: Plasma IL-6 and IL-10 by ELISA after trauma/hemorrhagic shock; type: in vivo; details: T/HS mice compared to vehicle-treated T/HS mice
# Method: (§1) In one set of studies, wild-type mice were randomly assigned into the following groups: trauma/sham shock (T/SS) receiving vehicle (saline), trauma/hemorrhagic shock (T/HS) receiving vehicle (saline), T/HS receiving POM1 (5 mg/kg), T/HS receiving apyrase (125 U/kg), T/HS receiving PSB 12379 (50 mg/kg), and T/HS receiving rhCD73 (2 mg/kg). In addition, in another group of studies, CD39^−/−, CD73^−/−, A2BAR^−/− and wild-type type mice were subjected to T/SS or T/HS. Some CD39^−/− and CD73^−/− were pretreated with NECA (0.0025 mg/kg). In pharmacological experiments, mice were pretreated intraperitoneally (30 min before T/SS or T/HS) with various agents.
# (§2) The mice were given anesthesia using 1% isoflurane and their rectal temperature was maintained between 36.5 and 37.5° C. using a feedback-controlled homeothermic blanket heating system (Sumno-suite, Kent Scientific). Hemorrhagic shock was induced using a fixed-pressure model. Initially, a midline laparotomy of 2 cm was performed on the anesthetized mice, which was later closed with a 4-0 silk suture (034902, Covetrus, USA). Following this, catheters were placed in the right and left femoral arteries for monitoring blood pressure and blood withdrawal, respectively. A sterile 1-ml syringe with a 30G needle attached to PE-10 tubing filled with 0.2 ml of 1% heparinized saline was used for blood withdrawal, and each mouse received 1U heparin. Blood pressure was monitored using a continuous blood-pressure monitoring system (Powerlab 8/30, ADInstruments, Colorado Springs, CO, USA). After 5 minutes of baseline blood pressure recording, a drug or vehicle was administered to the mice, followed by inducing shock for a period of 2.5 hours, during which the blood pressure was maintained between 28-32 mmHg by withdrawing or reinfusing the shed blood. At the end of the shock period, the mice were resuscitated with Ringer's Lactate at three times the amount of shed blood for 15 minutes (32). Three hours after resuscitation, the mice were euthanized and bronchoalveolar lavage fluid (BALF), blood, and tissue samples were collected. T/SS animals were exposed to the same procedures as other animals except for blood withdrawal (FIG. 1).
# IL-6 and IL-10 levels were measured in plasma samples using enzyme-linked immunosorbent assay (ELISA) kits (DY406, DY417; R&D Systems Minneapolis, USA) according to the manufacturer's instructions (32).
# [2] = tested on: T/HS mice; experiment: Pulmonary neutrophil sequestration (lung MPO activity) after trauma/hemorrhagic shock; type: in vivo; details: for neutrophil sequestration / infiltration in lung (MPO activity): wild-type T/HS mice vs vehicle, i.p. pretreatment 30 min before shock, POM1 5 mg/kg, apyrase 125 U/kg, PSB 12379 50 mg/kg, rhCD73 2 mg/kg; for neutrophil infiltration (lung MPO activity): NECA pretreatment 0.0025 mg/kg
# Method: as §1, §2
# Lung, liver, kidney, and gut samples were pooled from 4 mice in the same group, homogenized, sonicated, and treated with a 1×RIPA Buffer with Protease/phosphatase inhibitor cocktail (P8340, Sigma, USA), and the resulting homogenate was centrifuged at 13.000× g for 10 minutes at 4° C. Total protein content was determined by using Qubit 4.0 Fluorometer (Thermo Fisher, USA) as per the manufacturer's instructions.
# To evaluate neutrophil sequestration in the lung following T/SS or T/HS, myeloperoxidase (MPO) activity was assessed using an MPO activity kit (MAK068, Sigma, USA). The supernatant of lung lysates was assayed according to the manufacturer's instructions (32).
# [3] = tested on: T/HS mice; experiment: Plasma AST and ALT levels (liver injury) after trauma/hemorrhagic shock; type: in vivo; details: for T/HS-enhanced ALT level in plasma / T/HS-enhanced AST level in plasma: wild-type T/HS mice vs vehicle, i.p. pretreatment 30 min before shock; for liver injury: T/HS mice
# Method: as §1, §2
# Plasma samples were analyzed to determine the levels of aspartate aminotransferase (AST) and alanine aminotransferase (ALT). To do this, the samples were diluted with AST (TR70121 Thermo Fisher, USA) and ALT (TR71122 Thermo Fisher, USA) reagents at a 1:10 ratio, and the resulting light signal was measured using a spectrophotometer at 340 and 405 nm (32).
# [4] = tested on: T/HS mice; experiment: Lung permeability (Evans blue dye) after trauma/hemorrhagic shock; type: in vivo; details: wild-type T/HS mice vs vehicle; i.p. pretreatment 30 min before shock; POM1 5 mg/kg, apyrase 125 U/kg, PSB 12379 50 mg/kg, rhCD73 2 mg/kg
# Method: as §1, §2
# Mice were re-anesthetized with isoflurane 3 hours after the end of resuscitation. Evans blue dye (EBD) technique was used to determine lung permeability. EBD was administered through the tail vein, and about 1 ml of blood was withdrawn from the tail artery five minutes later. The supernatant of BALF was assayed at 620 nm spectrophotometrically. The amount of Evans blue dye in the BALF was then expressed as a proportion of the amount in the plasma. (5, 32).
# [5] = tested on: CD39 deficient mice; details: cardiac, renal, hepatic, intestinal ischemia-reperfusion, exogenous supplementation; cited from earlier work
# [6] = tested on: hypoxic CD73 deficient mice; details: exogenous administration; cited from earlier work
# [7] = tested on: rat model of T/HS; details: posttreatment; cited from earlier work
molecule,measurement,setting,value
"O=P(O)(O)CP(=O)(O)OC[C@H]1O[C@@H](n2cnc3c(NCc4ccccc4)ncnc32)[C@H](O)[C@@H]1O.[Na].[Na] [PSB 12379, N6-Benzyl-α,β-methyleneadenosine 5′-diphosphate disodium salt]",plasma IL-6 levels,[1],increased
same,plasma IL-10 levels,[1],reduced
same,neutrophil sequestration / infiltration in lung (MPO activity),[2],increased
same,T/HS-enhanced ALT level in plasma,[3],increased
same,T/HS-enhanced AST level in plasma,[3],increased
same,"T/HS-induced lung injury (lung permeability, EBD method)",[4],increased
apyrase,increased ischemic organ injury,[5],reversed
same,plasma IL-6 levels,[1],lower
same,plasma IL-10 levels,[1],increased
same,neutrophil sequestration / infiltration in lung (MPO activity),[2],moderated
same,liver injury,[3],decreased
same,T/HS-enhanced ALT level in plasma,[3],suppressed
same,T/HS-enhanced AST level in plasma,[3],suppressed
same,"T/HS-induced lung injury (lung permeability, EBD method)",[4],moderated
"CCNC(=O)[C@H]1O[C@@H](n2cnc3c(N)ncnc32)[C@H](O)[C@@H]1O [NECA, 1-(6-Amino-9H-purin-9-yl)-1-deoxy-N-ethyl-β-D-ribofuranuronamide]",increased vascular permeability,[6],reversed
same,polymorphonuclear neutrophil extravasation,[6],reversed
same,neutrophil infiltration (lung MPO activity),[2]; CD39-/- mice after T/HS,decreased
same,neutrophil infiltration (lung MPO activity),[2]; CD73-/- mice after T/HS,decreased
sodium polyoxotungstate [POM1],plasma IL-6 levels,[1],higher
same,plasma IL-10 levels,[1],similar
same,neutrophil sequestration / infiltration in lung (MPO activity),[2],exacerbated
same,T/HS-enhanced ALT level in plasma,[3],increased
same,T/HS-enhanced AST level in plasma,[3],increased
same,"T/HS-induced lung injury (lung permeability, EBD method)",[4],exacerbated
N#Cc1c(N)nc(SCC(N)=O)c(C#N)c1-c1ccc(OCC2CC2)cc1 [BAY 60-6583],lung permeability,[7],decreases
same,neutrophil infiltration into the lung,[7],not
B1,plasma IL-6 levels,[1],decreased
same,plasma IL-10 levels,[1],increased
same,neutrophil sequestration / infiltration in lung (MPO activity),[2],decreased
same,liver injury,[3],decreased
same,T/HS-enhanced ALT level in plasma,[3],suppressed
same,T/HS-enhanced AST level in plasma,[3],suppressed
same,"T/HS-induced lung injury (lung permeability, EBD method)",[4],decreased
